Here are results for one compound from patent US20180214411A1, “COMPOSITION COMPRISING SATIETY-INDUCING PARTICLES” (PERORA GMBH, priority 2015, published 2018).

A short description of this series: tryptophan release / dissolution in fasted-state simulated gastric fluid (FaSSGF). It counts as physicochemical. Conditions: 30 mg powder in 22 mL FaSSGF, 37° C., agitated.

The structures appear in SMILES notation.

Procedure: 30 mg of tryptophan powder were suspended in 22 mL FaSSGF at 37° C. and agitated (shaker ST5 from CAT, Germany). Aliquots were removed at time intervals of 5 min, and tryptophan concentration was quantified using absorption measurement at a wavelength of 280 nm in a NanoDrop® 2000 device (Thermo Scientific, USA).

For `N[C@@H](Cc1c[nH]c2ccccc12)C(=O)O` [tryptophan powder, L-Tryptophan], the “time after which tryptophan was quantitatively dissolved” value is 10 min.
